Test: Toxicity in iv dosed 24 hrs fasted Swiss-Webster mouse
Format: organism-based
Conditions: in vivo

| SMILES | LD50 [mg/kg] |
| --- | --- |
| CCN1C[C@]2(COC(=O)c3ccccc3N3C(=O)C[C@H](C)C3=O)CC[C@H](OC)[C@]34C5C[C@@H]6[C@@H](OC(C)=O)C[C@@](O)(C5[C@H]6O)[C@@](O)([C@H]13)[C@@H](OC)C24 (stereo partly drawn) | 5.7 |
| CCN1C[C@]2(COC(=O)c3ccccc3N3C(=O)C[C@H](C)C3=O)CC[C@H](OC)[C@]34C5C[C@@H]6[C@@H](OC(C)=O)C[C@@](O)(C5[C@H]6OC)[C@@](O)([C@H]13)[C@@H](OC)C24 (stereo partly drawn) [GEYERLINE] | 6.2 |
| CCN1C[C@]2(COC(=O)c3ccccc3N3C(=O)C[C@H](C)C3=O)CC[C@H](OC)[C@]34C5C[C@@H]6[C@@H](OC(C)=O)C[C@@](O)(C5[C@H]6OC(C)=O)[C@@](O)([C@H]13)[C@@H](OC)C24 (stereo partly drawn) | 3.3 |
